# Patent US6534495B1, “Serine protease inhibitors” (Akzo Nebel, priority 1997, dated 2003)
# Tests used:
# Assay type in all cases: biochemical
# [1] = biological target: T1, Human thrombin (Homo sapiens, UniProt P00734); test: Anti-thrombin assay (hydrolysis of chromogenic substrate S-2238); conditions: S-2238, TNP buffer, 37° C., read-out: IC50, antithrombin activity
# T1 construct: purchased Centraal Laboratorium voor Bloedtransfusie, Amsterdam, The Netherlands
# Procedure: Thrombin (Factor […]) is a factor in the coagulation cascade.
# The anti-thrombin activity of compounds of the present invention was assessed by measuring spectrophotometrically the rate of hydrolysis of the chromogenic substrate s-2238 exterted by thrombin. This assay for anti-thrombin activity in a buffer system was used to assess the IC50-value of a test compound.
# Test medium: Tromethamine-NaCl-polyethylene glycol 6000 (TNP) buffer
# Reference compound: 12581 (Kabi)
# Solubilisation can be assisted with dimethylsulfoxide, methanol, ethanol, acetonitrile or tert.-butyl alcohol which are without adverse effects in concentrations up to 2.5% in the final reaction mixture.
# 1. Tromethamine-NaCl (TN) buffer
# Composition of the buffer:
# The pH of the solution is adjusted to 7.4 at 37° C. with HCl (10 mmol.l^−1).
# Polyethylene glycol 6000 is dissolved in TN buffer to give a concentration of 3 g.l^−1.
# One vial S-2238 (25 mg; Kabi Diagnostica, Sweden) is dissolved in 20 ml TN buffer to give a concentration of 1.25 mg.ml^−1 (2 mmol.l^−1).
# Human thrombin (16 000 nKat.vial^−1; Centraal Laboratorium voor Bloedtransfusie, Amsterdam, The Netherlands) is dissolved in TNP buffer to give a stock solution of 835 nKat.ml^−1.
# Immediately before use this solution is diluted with TNP buffer to give a concentration of 3.34 nKat.ml^−1.
# All ingredients used are of analytical grade
# For aqueous solutions ultrapure water (Milli-Q quality) is used.
# Preparation of Test and Reference Compound Solutions
# The test and reference compounds are dissolved in Milli-Q water to give stock concentrations of 10^−2 mol.l^−1. Each concentration is stepwise diluted with the vehicle to give concentrations of […], 10^−4 and 10^−5 mol.l^−1. The dilutions, including the stock solution, are used in the assay (final concentrations in the reaction mixture: 3·10^−3; 10^−3; 3·10^−4; 10^−4; 3·10^−5; 10^−5, 3·10^−6 and 10^−6 mol.l^−1, respectively).
# At room temperature 0.075 ml and 0.025 ml test compound or reference compound solutions or vehicle are alternately pipetted into the wells of a microtiter plate and these solutions are diluted with 0.115 ml and 0.0165 ml TNP buffer, respectively. […] Starting after 1 min of incubation, the absorbance of each sample at 405 nm is measured every 2 min. for a period of 90 min. using a kinetic microtiter plate reader (Twinreader plus, Flow Laboratories).
# All data are collected in an IBM personal computer using LOTUS-MEASURE. For each compound concentration (expressed in mol.l^−1 reaction mixture) and for the blank the absorbance is plotted versus the reaction time in min.
# Evaluation of responses: For each final concentration the maximum absorbance was calculated from the assay plot. […]
# [2] = biological target: T2, recombinant human factor VIIa / recombinant human Tissue Factor complex (Homo sapiens, UniProt P08709); test: Anti factor VIIa/tissue factor assay (amidolysis of Pefachrome VIIa); conditions: for percentage inhibition, anti factor VIIa/tissue factor activity: single point, at a concentration of 1×10^−5 M
# T2 construct: purchased American Diagnostica Inc, Greenwich, Conn
# From the text: III. Anti Factor VIIa/Tissue Factor Assay
# Vascular damage initiates a series of enzyme generation reactions ultimately leading to the formation of a fibrin gel at the site of the injury. The primary enzyme generation reaction is the generation of activated factor VII (VIIa) from proenzyme factor VII. This activation reaction takes place by an as yet unknown mechanism. […] The activated Factor VII then also binds to membrane-bound TF and this […] tenase complex next converts Factor X into Factor Xa.
# Thrombosis develops when there is insufficient control of the coagulation reaction. One way to restore this control is by inhibiting essential coagulation enzymes such as for instance the complex of membrane-bound TF and Factor VIIa. […] A method is described by which the inhibitory potency of compounds towards VIIa/TF complex can be established. Test compounds are mixed at various concentrations with factor VIIa and TF and with a chromogenic substrate, which is known to be split far better by TF-bound VIIa than by free VIIa. The amidolytic reaction taking place is continuously monitored in a microtiter plate reader. Inhibitory potency of the compounds investigated is expressed by the IC50, defined as the concentration of compounds yielding 50% inhibition of the amidolytic reaction, ninety minutes after the start of the reaction.
# A ten times concentrated Hepes buffer made by dissolving 29.40 g CaCl2.2H2O, 47.66 g Hepes, 87.66 g NaCl and 30.00 g polyethyleneglycol (PEG) MW=6000 in 1000 ml aqua bidest. After the solution has been heated to 37° C., the pH of the buffer is set on 7.40 with help of 10 molar NaOH. The concentrated buffer solution is stored at 4° C. and is stable for at least two months at this condition. Prior to use the buffer is diluted in aqua bidest. 1 to 8 to obtain a final concentration in the wells (See test procedure) of 20 mM CaCl2, 20 mM Hepes, 150 mM NaCl and 0.3% PEG6000. If compounds are dissolved and diluted in aqua bidest. or another vehicle because of an insufficient solubility the Hepes buffer can be diluted 1 to 6 to preserve the same ionic strength in the test.
# Recombinant Human Factor VIIa
# Recombinant human factor VIIa is obtained from American Diagnostica Inc, Greenwich, Conn. Each vial contains 1.2 mg recombinant human factor VIIa, which is lyophilized from 2 ml buffer composed of 10 mM glycylglycine, 50 mM NaCl, 10 mM CaCl2, 30 mg/ml mannitol, 0.1% Tween, pH 5.5. The contents of each of these vials is reconstituted with 2 ml aqua bidest. as indicated by the manufacturer. The 2 ml 1.2*10^−5 stock solution thus obtained is divided in smaller fractions, which are stored at −30° C. At this condition these VIIa samples are stable for at least 6 months.
# Recombinant Human Tissue Factor
# Recombinant human Tissue Factor is obtained from American Diagnostica Inc, Greenwich, Conn. Each vial contains 25 μg recombinant human Tissue Factor (non-lipidated, MW 35000 Dalton), which is lyophilized from 1 ml Tris/HCl buffer (pH 8.0) composed of 150 mM NaCl, 200 mM mannitol and 10 mM CHAPS (Steroid derivative used to solubilize membrane proteins; see Merck Index). The contents of each vial is reconstituted with 1 ml aqua bidest. as indicated by the manufacturer. The 1 ml 7.14×10^−7 M stock solution thus obtained is divided in smaller fractions, which are stored at −30° C. Thus stored these VIIa samples are stable for at least 67 months. […]
# [3] = biological target: T3, Bovine Factor Xa Human (Bos taurus, UniProt P00743); test: Anti-factor Xa assay (hydrolysis of chromogenic substrate S-2222); conditions: S-2222, TNP buffer, 37° C.
# T3 construct: purchased Kabi Diagnostica
# Procedure: Activated Factor X (Xa) is a factor in the coagulation cascade. The anti-Xa activity of compounds of the present invention was assessed by measuring spectrophotometrically the rate of hydrolysis of the chromogenic substrate s-2222 exterted by Xa. This assay for anti-Xa activity in a buffer system was used to assess the IC50-value of the test compound.
# In general the followed procedure and test conditions were analogous to those of the anti-thrombin assay as described above. Differences are indicated below.
# Reference compound: benzamidine
# Solubilisation can be assisted with dimethylsulfoxide, methanol, ethanol, acetonitrile or tert.-butyl alcohol which are without adverse effects in concentrations up to 1% (for DMSO) and 2.5% (for the other solvents) in the final reaction mixture.
# One vial S-2222 (15 mg; Kabi Diagnostica, Sweden) is dissolved in 10 ml water to give a concentration of 1.5 mg.ml^−1 (2 mmol.l^−1).
# Bovine Factor Xa Human (71 nKat.vial^−1, Kabi Diagnostica) is dissolved in 10 ml TNP buffer and then further diluted with 30 ml TNP buffer to give a concentration of 1.77 nKat.ml^−1. The dilution has to be freshly prepared.
# Instead of the S-2238 solution (in anti-thrombin assay), the above S-2222 solution is added to each well in this assay.
# T2 sequence (P08709 213-466 limits assumed): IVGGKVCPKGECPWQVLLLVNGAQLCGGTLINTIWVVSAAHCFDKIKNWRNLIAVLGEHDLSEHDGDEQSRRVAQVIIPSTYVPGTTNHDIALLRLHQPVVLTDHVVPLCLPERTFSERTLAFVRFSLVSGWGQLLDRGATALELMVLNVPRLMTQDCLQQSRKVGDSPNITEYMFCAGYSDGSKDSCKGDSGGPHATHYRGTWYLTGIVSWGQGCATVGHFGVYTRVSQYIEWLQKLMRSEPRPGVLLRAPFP
# T2 sequence (P08709 61-212 limits assumed): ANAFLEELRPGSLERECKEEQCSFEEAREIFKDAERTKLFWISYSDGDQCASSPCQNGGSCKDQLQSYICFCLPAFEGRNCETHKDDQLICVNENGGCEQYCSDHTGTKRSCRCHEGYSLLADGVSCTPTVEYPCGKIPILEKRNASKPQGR
# T2 sequence (P13726 33-295 partner): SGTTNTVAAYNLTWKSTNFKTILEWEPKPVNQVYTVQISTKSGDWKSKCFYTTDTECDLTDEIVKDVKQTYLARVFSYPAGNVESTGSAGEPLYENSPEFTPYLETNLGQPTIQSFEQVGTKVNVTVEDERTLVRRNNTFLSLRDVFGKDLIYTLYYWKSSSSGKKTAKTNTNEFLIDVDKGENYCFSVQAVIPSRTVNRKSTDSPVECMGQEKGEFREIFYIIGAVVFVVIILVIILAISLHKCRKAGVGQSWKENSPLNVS
# T3 sequence (P00743 234-492 limits assumed): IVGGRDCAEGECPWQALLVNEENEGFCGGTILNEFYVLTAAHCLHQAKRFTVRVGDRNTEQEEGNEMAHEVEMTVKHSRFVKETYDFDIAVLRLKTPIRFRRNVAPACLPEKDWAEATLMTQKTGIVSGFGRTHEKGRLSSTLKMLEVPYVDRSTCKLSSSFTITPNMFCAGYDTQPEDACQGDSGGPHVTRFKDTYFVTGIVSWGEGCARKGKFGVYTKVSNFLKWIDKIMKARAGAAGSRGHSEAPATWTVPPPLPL
# T3 sequence (P00743 41-180 limits assumed): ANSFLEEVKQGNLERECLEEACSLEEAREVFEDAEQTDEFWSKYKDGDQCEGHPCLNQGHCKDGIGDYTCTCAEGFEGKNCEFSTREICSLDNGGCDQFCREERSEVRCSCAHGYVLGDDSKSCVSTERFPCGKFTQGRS
Structure (SMILES),IC50 [1] [nM],"percentage inhibition, anti factor VIIa/tissue factor activity [2] [%]",further results
CCS(=O)(=O)N[C@@H](CC(N)=O)C(=O)N[C@@H](CC(C)C)C(=O)N[C@@H](CCCCN)C(=O)C(=O)OC(C)C [EtSO2-Asn-Leu-LysΨ[COCO]-O-iPropyl],–,56,–
CCS(=O)(=O)N[C@H](CC(C)C)C(=O)N[C@@H](CCC(N)=O)C(=O)N[C@@H](CCCCN)C(=O)C(=O)OC(C)C [EtSO2-D-Leu-Gln-LysΨ[COCO]-O-iPropyl],–,94,–
"CCOC(=O)C(=O)C(CCCCN)NC(=O)C1CCCN1C(=O)C(CC1CCCCC1)NS(=O)(=O)CC [Example 5, EthylSO2-D-Cha-Pro-LysTr[COCO]-OEt]",–,–,IC50 [3]: 280 nM
"CC(C)OC(=O)C(=O)C(CCCCN)NC(=O)C1CCCN1C(=O)C(CC1CCCCC1)NS(=O)(=O)Cc1ccccc1 [Example 28, BenzylSO2-D-Cha-Pro-LysΨ[COCO]—O-iPropyl]",–,–,IC50 [3]: 20 nM
CCS(=O)(=O)N[C@H](Cc1ccccc1)C(=O)N[C@@H](CC(C)C)C(=O)N[C@@H](CCCCN)C(=O)C(=O)OC(C)C [EtSO2-D-Phe-Leu-LysΨ[COCO]-O-iPropyl],–,98,–
"CCS(=O)(=O)NC(Cc1ccc(OC)cc1)C(=O)N1CCCC1C(=O)NC(CCCCN)C(=O)C(=O)N1CCC1 [Example 38, EtSO2-D-Tyr(Me)-Pro -LysΨ[COCO]-Azetidine]",110,–,–
"CC(C)OC(=O)C(=O)C(CCCCN)NC(=O)C1CCCN1C(=O)C(CC1CCCCC1)NS(=O)(=O)CC12CCC(CC1=O)C2(C)C [Example 24, (10-Camphor)SO2-D-Cha-Pro-LysΨ[COCO]—O-iPropyl]",10,–,–
"NC(N)=NCCC[C@H](NC(=O)[C@@H]1CCCN1C(=O)[C@H](N)Cc1ccccc1)C(=O)CCl [Org 34593, reference compound]",–,–,"IC50 ([2]; reference compound, 50% inhibition of the amidolytic reaction at 90 min): 300 nM"
"NCCCCC(NC(=O)CN1CCCCC(NS(=O)(=O)Cc2ccccc2)C1=O)C(=O)C(=O)NCc1ccccc1 (stereo not drawn) [Example 1, BzlSO2-norLeu(cyclo)-Gly-LysΨ[COCO]-NHBzl]",–,–,IC50 [3]: 640 nM

# Now from value to molecule, other results behind:
IC50 [1] [nM],"percentage inhibition, anti factor VIIa/tissue factor activity [2] [%]",Structure (SMILES),further results
20,–,"CC(C)OC(=O)C(=O)C(CCCCN)NC(=O)C1CCCN1C(=O)C(NS(=O)(=O)Cc1ccccc1)C(c1ccccc1)c1ccccc1 [Example 40, BzlSO2-D-Dpa-Pro-LysΨ[COCO]—O-iPropyl]",–
–,91,CCS(=O)(=O)N1Cc2ccccc2C[C@@H]1C(=O)N[C@@H](Cc1ccccc1)C(=O)N[C@@H](CCCCN)C(=O)C(=O)OC(C)C [EtSO2-D-3-Tiq-Phe-LysΨ[COCO]-O-iPropyl],–
90,–,"NCCCCC(NC(=O)CN1CCCCC(NS(=O)(=O)Cc2ccccc2)C1=O)C(=O)C(N)=O (stereo not drawn) [Example 4, BzlSO2-norLeu(cyclo)-Gly-LysΨ[COCO]—NH2]",–
